Source: patent US6410528B1, “Morpholino ethers” (Glaxo Wellcome S.A., priority 1998, dated 2002)
Values after ≈ are worked out from the molar mass of the structure shown.

What was measured:
[1] = system: C. albicans 4711E; assay: in vitro antifungal screen, MIC by two-fold serial dilution; type: cell-based, Candida albicans
Description: (§1) The antifungal activity of the compounds of formula (I) may be determined using conventional in vitro and in vivo screens. Thus, the in vitro evaluation of the anti-fungal activity of compounds of the invention was performed on liquid or solid medium by the anti-fungal two-fold serial dilution technique of determining the minimum inhibitory concentration (MIC) of anti-fungal agent that inhibited development of growth after 24 to 48 hours of incubation at 37° C. In practice, a series of agar plates or broth microdilution panels containing two-fold dilutions of anti-fungal agent tested were inoculated with a standard culture of a clinically relevant pathogen, for example, Candida albicans. The agar plates or broth microdulution panels were then examined for the presence or absence of growth of the fungus and the appropriate MIC values were noted.
(§2) Compounds of formula (I) have been tested for anti fungal activity in a standard in vitro screen and the minimum inhibiting concentration (MIC; μg/ml) determined for each compound against a variety of clinically relevant pathogens.

[2] = system: C. albicans CL-236; assay: as above; type: cell-based, Candida albicans
Description: as §1, §2

[3] = system: C. glabrata 2375E; assay: as above; type: cell-based, Candida glabrata
Description: as §1, §2

[4] = system: C. glabrata 522; assay: as above; type: cell-based, Candida glabrata
Description: as §1, §2

[5] = system: C. tropicalis 2808E; assay: as above; type: cell-based, Candida tropicalis
Description: as §1, §2

[6] = system: C. parapsilosis 2372E; assay: as above; type: cell-based, Candida parapsilosis
Description: as §1, §2

[7] = system: C. pseudotropicalis 2371E; assay: as above; type: cell-based, Candida pseudotropicalis
Description: as §1, §2

[8] = system: C.albicans 4711E; assay: system candidiasis test in mice; type: in vivo; conditions: administered orally, system candidiasis test (C.albicans 4711E) in mice
Description: The fungicidal activity of the compounds of formula (I) may also be determined in conventional tests in animals e.g. rats and mice. For example the lethal systems candidiasis test in mice.
(§3) The compounds of the invention are essentially non-toxic at therapeutically useful levels. For example, the compound of Example 2 when admistered orally in a system candidiasis test (C.albicans 4711E) in mice, has an ED50 value of 9.0 mg/kg. The LD50 value for the compound of example 2, in female mice is >300 mg/kg iv.

[9] = toxicity (LD50) in female mice; type: in vivo; conditions: iv
Description: as §3

| Structure (SMILES) | MIC [1] | MIC [2] | MIC [3] [µg/mL] | MIC [4] [µg/mL] | MIC [5] | MIC [6] [µg/mL] | MIC [7] | ED50 [8] [mg/kg] | LD50 [9] [mg/kg] |
| --- | --- | --- | --- | --- | --- | --- | --- | --- | --- |
| CC1CN(Cc2ccccc2)CC(OCC23CC4C(C)CCC4C4(C=O)CC2C=C(C(C)C)C43C(=O)O)O1 [Example 1i, [1R-(1α,3aβ,4β,4aβ,7β,7aα,8aβ)]8a-[(2R,6R)-(4-benzyl-6-methylmorpholin-2-yl)-oxymethyl]-4-formyl-4,4a,5,6,7,7a,8,8a-octahydro-7-methyl-3-(1-methylethyl)-1,4-methano-s-indacene-3a(1H)-carboxylic acid] | ≦0.001 μg/ml | ≦0.001 μg/ml | 1 (≈ 1.92 µM) | 1 (≈ 1.92 µM) | 0.008 µg/mL (≈ 0.0153 µM) | >125 |  |  |  |
| CC1CN(CC=C(F)F)CC(OCC23CC4C(C)CCC4C4(C=O)CC2C=C(C(C)C)C43C(=O)O)O1 [Example 10, [1R-(1α,3aβ,4β,4aβ,7β,7aα,8aβ)]8a-[(2R,6R)-(4-(3,3-difluoroallyl)-6-methyl-morpholin-2-yl)-oxymethyl]-4-formyl-4,4a,5,6,7,7a,8,8a-octahydro-7-methyl-3-(1-methylethyl)-1,4-methano-s-indacene-3a(1H)-carboxylic acid] | 0.03 µg/mL (≈ 0.0591 µM) | 0.06 µg/mL (≈ 0.118 µM) | 1 (≈ 1.97 µM) | 1 (≈ 1.97 µM) | 0.06 µg/mL (≈ 0.118 µM) | 16 (≈ 31.5 µM) | 0.03 µg/mL (≈ 0.0591 µM) |  |  |
| C=C(C)CN1C[C@H](OC[C@@]23C[C@@H]4[C@H](C)CC[C@H]4[C@@]4(C=O)C[C@@H]2C=C(C(C)C)[C@@]34C(=O)O)O[C@H](C)C1 [Example 12] | ≦0.001 μg/ml | ≦0.001 μg/ml | 0.25 (≈ 0.515 µM) | 0.25 (≈ 0.515 µM) | 0.008 µg/mL (≈ 0.0165 µM) | 1 (≈ 2.06 µM) | ≦0.001 μg/ml |  |  |
| C=CCN1CC(C)OC(OCC23CC4C(C)CCC4C4(C=O)CC2C=C(C(C)C)C43C(=O)O)C1 [Example 2, [1R-(1α,3aβ,4β,4aβ,7β, 7aα,8aβ)]8a-[(2R,6R)-(4-allyl-6-methyl-morpholin-2-yl)-oxymethyl]-4-formyl-4,4a,5,6,7,7a,8,8a-octahydro-7-methyl-3-(1-methylethyl)-1,4-methano-s-indacene-3a(1H)-carboxylic acid] | 0.008 µg/mL (≈ 0.017 µM) | 0.03 µg/mL (≈ 0.0636 µM) | 0.5 (≈ 1.06 µM) | 0.5 (≈ 1.06 µM) | 0.03 µg/mL (≈ 0.0636 µM) | >125 | 0.004 µg/mL (≈ 0.00848 µM) | 9.0 | > 300 |
| COc1ccc(CN2CC(C)OC(OCC34CC5C(C)CCC5C5(C=O)CC3C=C(C(C)C)C54C(=O)O)C2)cc1 [Example 16, [1R-(1α,3aβ,4β,4aβ,7β,7aα,8β)]8a-[(2R,6R)4-(4-methoxybenzyl)-6-methyl-morpholin-2-yl)-oxymethyl]-4-formyl-4,4a,5,6,7,7a,8,8a-octahydro-7-methyl-3-(1-methylethyl)-1,4-methano-s-indacene-3a(1H)-carboxylic acid] | ≦0.001 μg/ml | ≦0.001 μg/ml | 0.25 (≈ 0.453 µM) | 0.25 (≈ 0.453 µM) | 0.008 µg/mL (≈ 0.0145 µM) | 2 (≈ 3.63 µM) | ≦0.001 μg/ml |  |  |
| CON1CC(C)OC(OCC23CC4C(C)CCC4C4(C=O)CC2C=C(C(C)C)C43C(=O)O)C1 [Example 18, 1R-(1α,3aβ,4β,4aβ,7β,7aα,8aβ)]8a-[(2R,6R)-6-methyl-4-methoxy-morpholin-2-yl)-oxymethyl]-4-formyl-4,4a,5,6,7,7a,8,8a-octahydro-7-methyl-3-(1-methylethyl)-1,4-methano-s-indacene-3a(1H)-carboxylic acid] | 0.03 µg/mL (≈ 0.065 µM) | 0.25 µg/mL (≈ 0.542 µM) | 8 (≈ 17.3 µM) | 8 (≈ 17.3 µM) | 1 µg/mL (≈ 2.17 µM) | >125 |  |  |  |
| C=C(Br)CN1CC(C)OC(OCC23CC4C(C)CCC4C4(C=O)CC2C=C(C(C)C)C43C(=O)O)C1 [Example 7, [1R-(1α,3aβ,4β,4aβ,7β,7aα,8aβ)]8a-[(2R,6R)-(4-(2-bromoallyl)-6-methyl-morpholin-2-yl)-oxymethyl]-4-formyl-4,4a,5,6,7,7a,8,8a-octahydro-7-methyl-3-(1-methylethyl)-1,4-methano-s-indacene-3a(1H)-carboxylic acid] | ≦0.001 μg/ml | 0.008 µg/mL (≈ 0.0145 µM) | 0.25 (≈ 0.454 µM) | 0.25 (≈ 0.454 µM) | 0.008 µg/mL (≈ 0.0145 µM) | 4 (≈ 7.27 µM) | ≦0.001 μg/ml |  |  |
| C=C=CCN1CC(C)OC(OCC23CC4C(C)CCC4C4(C=O)CC2C=C(C(C)C)C43C(=O)O)C1 [Example 14, [1R-(1α,3aβ,4β,4aβ,7β,7aα,8aβ)]8a-[(2R,6R)-4-(2,3-butadienyl)-6-methyl-morpholin-2-yl)-oxymethyl]-4-formyl-4,4a,5,6,7,7a,8,8a-octahydro-7-methyl-3-(1-methylethyl)-1,4-methano-s-indacene-3a(1H)-carboxylic acid] | ≦0.001 μg/ml | 0.004 µg/mL (≈ 0.00827 µM) | 0.12 (≈ 0.248 µM) | 0.12 (≈ 0.248 µM) | 0.015 µg/mL (≈ 0.031 µM) | 8 (≈ 16.5 µM) | ≦0.001 μg/ml |  |  |
| CC1CN(C2CC2)CC(OCC23CC4C(C)CCC4C4(C=O)CC2C=C(C(C)C)C43C(=O)[O-])O1.[K+] [Example 4, [1R-(1α,3aβ,4β,4aβ,7β,7aα,8aβ)]8a-[(2R,6R)-(4-cyclopropyl-6-methyl-morpholin-2-yl)-oxymethyl]-4-formyl-4,4a,5,6,7,7a,8,8a-octahydro-7-methyl-3-(1-methylethyl)-1,4-methano-s-indacene-3a(1H)-carboxylic acid, potassium salt] | ≦0.001 μg/ml | 0.015 µg/mL | 4 | 4 | 0.06 µg/mL | >125 | 0.004 µg/mL |  |  |
| C=C(Cl)CN1CC(C)OC(OCC23CC4C(C)CCC4C4(C=O)CC2C=C(C(C)C)C43C(=O)O)C1 (stereo not drawn) [Example 8, [1R-(1α,3aβ,4β,4aβ,7β,7aα,8aβ)]8a-[(2R6R)-(4-(2-chloroallyl)-6-methyl-morpholin-2-yl)-oxymethyl]-4-formyl-4,4a,5,6,7,7a,8,8a-octahydro-7-methyl-3-(1-methylethyl)-1,4-methano-s-indacene-3a(1H)-carboxylic acid] | ≦0.001 μg/ml | ≦0.001 μg/ml | 0.03 (≈ 0.0593 µM) | 0.03 (≈ 0.0593 µM) | ≦0.001 μg/ml | 1 (≈ 1.98 µM) | ≦0.001 μg/ml |  |  |
| C=CCN1C[C@H](OC[C@@]23C[C@@H]4[C@H](C)CC[C@H]4[C@@]4(C#N)C[C@@H]2C=C(C(C)C)[C@@]34C(=O)O)O[C@H](C)C1 [Example 25, [1R-(1α,3aβ,4β,4aβ,7β,7aα,8aβ)]8a-[(2R,6R)-(4-allyl-6-methyl-morpholin-2-yl)-oxymethyl]-4-cyano4,4a,5,6,7,7a,8,8a-octahydro-7-methyl-3-(1-methylethyl)-1,4-methano-s-indacene-3a(1H)-carboxylic acid] | 0.25 µg/mL (≈ 0.533 µM) | 0.25 µg/mL (≈ 0.533 µM) | 0.5 (≈ 1.07 µM) | 0.5 (≈ 1.07 µM) | 0.5 µg/mL (≈ 1.07 µM) | >125 | 0.12 µg/mL (≈ 0.256 µM) |  |  |
| C#CCN1CC(C)OC(OCC23CC4C(C)CCC4C4(C=O)CC2C=C(C(C)C)C43C(=O)O)C1 [Example 6, [1R-(1α,3aβ,4β,4aβ,7β,7aα,8aβ)]8a-[(2R,6R)-(4-(2-propynyl)-6-methyl-morpholin-2-yl)-oxymethyl]-4-formyl-4,4a,5,6,7,7a,8,8a-octahydro-7-methyl-3-(1-methylethyl)-1,4-methano-s-indacene-3a(1H)-carboxylic acid] | 0.008 µg/mL (≈ 0.017 µM) | 0.015 µg/mL (≈ 0.0319 µM) | 0.25 (≈ 0.532 µM) | 0.5 (≈ 1.06 µM) | 0.06 µg/mL (≈ 0.128 µM) | 16 (≈ 34.1 µM) | 0.015 µg/mL (≈ 0.0319 µM) |  |  |
